Data: PubChem BioAssay (NCI)
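These data come from cells grown in 96-well plates and exposed to compound for 48 hours at five concentrations. Abbreviation: GI50, concentration required for 50% inhibition of growth. TGI marks complete inhibition of growth.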

Tests used:
Experiment in all cases: NCI tumour cell line growth inhibition, 48 h
[1] = system: EKVX NSCLC
[2] = system: SK-MEL-2 melanoma
[3] = system: IGROV1 ovarian
[4] = system: UO-31 renal
[5] = system: KM12 colon
[6] = system: UACC-62 melanoma
[7] = system: OVCAR-8 ovarian
[8] = system: NCI-H23 lung
[9] = system: NCI/ADR-RES ovarian
[10] = system: SF-539 CNS
[11] = system: MDA-MB-435
[12] = system: SW-620 colon
[13] = system: LOX IMVI melanoma
[14] = system: UACC-257 melanoma
[15] = system: MOLT-4 leukemia
[16] = system: U251 CNS
[17] = system: OVCAR-3 ovarian
[18] = system: COLO 205 colon
[19] = system: HCC-2998 colon
[20] = system: MCF7 breast
[21] = system: SR leukemia
[22] = system: DU-145 prostate
[23] = system: MDA-MB-231 breast
[24] = system: T-47D breast
[25] = system: HCT-116 colon
[26] = system: CCRF-CEM leukemia
[27] = system: ACHN renal
[28] = system: SF-295 CNS
[29] = system: HL-60(TB) leukemia
[30] = system: SN12C renal
[31] = system: HCT-15 colon
[32] = system: NCI-H226 lung
[33] = system: RXF 393 renal
[34] = system: NCI-H522 lung
[35] = system: SNB-19 CNS
[36] = system: OVCAR-5 ovarian
[37] = system: SK-MEL-5 melanoma
[38] = system: PC-3 prostate
[39] = system: SK-MEL-28 melanoma
[40] = system: 786-0 renal
[41] = system: HS 578T breast
[42] = system: HOP-62 NSCLC
[43] = system: SNB-75 CNS
[44] = system: SK-OV-3 ovarian
[45] = system: A498 renal
[46] = system: SF-268 CNS
[47] = system: TK-10 renal
[48] = system: BT-549 breast
[49] = system: HT29 colon
[50] = system: RPMI-8226 leukemia
[51] = system: MALME-3M melanoma
[52] = system: HOP-92 NSCLC
[53] = system: A549 NSCLC
[54] = system: K-562 leukemia
[55] = system: CAKI-1 renal
[56] = system: NCI-H460 lung
[57] = system: M14 melanoma

CCN1CCN(Cc2ccc(NC(=O)Nc3nc4ccc(Oc5ccnc(C(=O)NC)c5)cc4s3)cc2C(F)(F)F)CC1
GI50 [1]: 2010 nM
TGI [1]: 6670 nM
GI50 [2]: 1750 nM
TGI [2]: 3510 nM
GI50 [3]: 1760 nM
TGI [3]: 3620 nM
GI50 [4]: 1830 nM
TGI [4]: 3400 nM
GI50 [5]: 19 nM
TGI [5]: 1630 nM
GI50 [6]: 1700 nM
TGI [6]: 3280 nM
GI50 [7]: 2110 nM
TGI [7]: 4490 nM
GI50 [8]: 1830 nM
TGI [8]: 3860 nM
GI50 [9]: 1950 nM
TGI [9]: 4210 nM
GI50 [10]: 1540 nM
TGI [10]: 2970 nM
GI50 [11]: 1440 nM
TGI [11]: 2860 nM
GI50 [12]: 2070 nM
TGI [12]: 3870 nM
GI50 [13]: 1710 nM
TGI [13]: 3170 nM
GI50 [14]: 1860 nM
TGI [14]: 3510 nM
GI50 [15]: 2130 nM
TGI [15]: 5020 nM
GI50 [16]: 1850 nM
TGI [16]: 3450 nM
GI50 [17]: 1890 nM
TGI [17]: 3590 nM
GI50 [18]: 1800 nM
TGI [18]: 3390 nM
GI50 [19]: 2050 nM
TGI [19]: 3670 nM
GI50 [20]: 1230 nM
TGI [20]: 2890 nM
GI50 [21]: 281 nM
TGI [21]: 846 nM
GI50 [22]: 1760 nM
TGI [22]: 3620 nM
GI50 [23]: 1740 nM
TGI [23]: 3400 nM
GI50 [24]: 1990 nM
TGI [24]: 4250 nM
GI50 [25]: 1730 nM
TGI [25]: 3450 nM
GI50 [26]: 443 nM
TGI [26]: 2470 nM
GI50 [27]: 1390 nM
TGI [27]: 2710 nM
GI50 [28]: 1820 nM
TGI [28]: 3660 nM
GI50 [29]: 2010 nM
TGI [29]: 4110 nM
GI50 [30]: 1800 nM
TGI [30]: 3660 nM
GI50 [31]: 1650 nM
TGI [31]: 3380 nM
GI50 [32]: 1450 nM
TGI [32]: 3160 nM
GI50 [33]: 1670 nM
TGI [33]: 3130 nM
GI50 [34]: 1680 nM
TGI [34]: 3590 nM
GI50 [35]: 2330 nM
TGI [35]: 4860 nM
GI50 [36]: 2120 nM
TGI [36]: 3930 nM
GI50 [37]: 1520 nM
TGI [37]: 2900 nM
GI50 [38]: 1870 nM
TGI [38]: 3580 nM
GI50 [39]: 1240 nM
TGI [39]: 2690 nM
GI50 [40]: 1030 nM
TGI [40]: 2360 nM
GI50 [41]: 2010 nM
TGI [41]: 4440 nM
GI50 [42]: 1950 nM
TGI [42]: 3780 nM
GI50 [43]: 1370 nM
TGI [43]: 2730 nM
GI50 [44]: 1820 nM
TGI [44]: 3360 nM
GI50 [45]: 1830 nM
TGI [45]: 3540 nM
GI50 [46]: 2000 nM
TGI [46]: 4120 nM
GI50 [47]: 2500 nM
TGI [47]: 4540 nM
GI50 [48]: 2320 nM
TGI [48]: 4250 nM
GI50 [49]: 1270 nM
TGI [49]: 3420 nM
GI50 [50]: 2100 nM
TGI [50]: 5340 nM
GI50 [51]: 1200 nM
TGI [51]: 2670 nM
GI50 [52]: 1940 nM
TGI [52]: 3910 nM
GI50 [53]: 1990 nM
TGI [53]: 3710 nM
GI50 [54]: 51.4 nM
TGI [54]: 1270 nM
GI50 [55]: 1940 nM
TGI [55]: 4150 nM
GI50 [56]: 1910 nM
TGI [56]: 3630 nM
GI50 [57]: 1750 nM
TGI [57]: 3380 nM
